Experimental data: patent US9707234B2, “Spirocyclic hetercycle compounds useful as HIV integrase inhibitors” (MERCK SHARP & DOHME CORP., priority 2013, dated 2017)
Like-named read-outs stand apart in the source and are kept apart here.

System: HIV-1 (H9IIIB or NL4-3 virus) replication in MT4-GFP cells
Experiment: microbe, parasite or virus in culture
Assay type: cell-based
Settings: inhibition of reproductive ratio R0, 48-72 h post-infection
[1] = Human immunodeficiency virus 1, NL43, MT4-GFP cells infected with HIV-1, 100% normal human serum, read-out: ViKinG IP (nM) with 100% NHS
[2] = Human immunodeficiency virus 1, NL43, MT4-GFP cells infected with HIV-1, serum free conditions (0% NHS), read-out: ViKinG IP (nM) with 0% NHS
[3] = MT4-GFP cells infected with HIV-1, 100% normal human serum, read-out: ViKinG IP (nM) with 100% NHS
[4] = MT4-GFP cells infected with HIV-1, serum free conditions (0% NHS), read-out: ViKinG IP (nM) with 0% NHS

| SMILES | IC50 [1] | IC50 [2] | IC50 [3] | IC50 [4] | IC50 (Human immunodeficiency virus 1, NL43, MT4-GFP cells infected with HIV-1, 10% normal human serum, read-out: ViKinG IP (nM) with 10% NHS) |
| --- | --- | --- | --- | --- | --- |
| CCCN1C(=O)c2c(O)c(=O)c(C(=O)NCc3ccc(F)cc3F)cn2CC12CCOC2 (racemic) [Compound 67] | 3600 nM | 6.6 nM | – | – | – |
| CCOP(=O)(CCCN1n2cc(C(=O)NCc3ccc(F)cc3F)c(=O)c(O)c2C(=O)N(C)C12CCOC2)OCC (racemic) [Compound 161] | 227 nM | – | – | – | – |
| CCN1C(=O)c2c(O)c(=O)c(-c3nnc(Cc4ccc(F)cc4F)s3)cn2N(C)C12CCOC2 (single isomer, unassigned) [Compound 35] | – | – | 133 nM | 1.7 nM | – |
| CCN1C(=O)c2c(O)c(=O)c(-c3nnc(Cc4ccc(F)cc4F)s3)cn2N(C)C12CCOC2 (single isomer, unassigned) [Compound 36] | – | – | 368 nM | 3.8 nM | – |
| COCCN1C(=O)c2c(O)c(=O)c(C(=O)NCc3ccc(F)cc3F)cn2CC12CCOC2 (single isomer, unassigned) [Compound 49] | 123 nM | 2.9 nM | – | – | – |
| COCCN1C(=O)c2c(O)c(=O)c(C(=O)NCc3ccc(F)cc3F)cn2CC12CCOC2 (single isomer, unassigned) [Compound 50] | – | – | 107 nM | 3.1 nM | – |
| COCCN1C(=O)c2c(O)c(=O)c(C(=O)NCc3ccc(F)cc3)cn2CC12CCOC2 (single isomer, unassigned) [Compound 51] | 196 nM | 4.8 nM | – | – | – |
| COCCN1C(=O)c2c(O)c(=O)c(C(=O)NCc3ccc(F)c(Cl)c3)cn2CC12CCOC2 (single isomer, unassigned) [Compound 52] | 2000 nM | 4.8 nM | – | – | – |
| COCCN1C(=O)c2c(O)c(=O)c(C(=O)NCc3ccc(F)c(C)c3F)cn2CC12CCOC2 (single isomer, unassigned) [Compound 53] | 2570 nM | 5.3 nM | – | – | – |
| COCCN1C(=O)c2c(O)c(=O)c(C(=O)NCc3ccc(F)c(Cl)c3F)cn2CC12CCOC2 (single isomer, unassigned) [Compound 54] | 989 nM | 2.3 nM | – | – | – |
| CN1C(=O)c2c(O)c(=O)c(C(=O)NCc3ccc(F)c(Cl)c3F)cn2CC12CCOC2 (single isomer, unassigned) [Compound 56] | 100 nM | 1.2 nM | – | – | – |
| CN1C(=O)c2c(O)c(=O)c(C(=O)NCc3ccc(F)cc3F)cn2CC12CCOC2 (single isomer, unassigned) [Compound 57] | 36 nM | 1.6 nM | – | – | – |
| CN1C(=O)c2c(O)c(=O)c(C(=O)NCc3ccc(F)cc3F)cn2CC12CCOC2 (single isomer, unassigned) [Compound 58] | – | – | 27 nM | 1.9 nM | 5 nM |
| CN1C(=O)c2c(O)c(=O)c(C(=O)NCc3ccc(F)cc3)cn2CC12CCOC2 (single isomer, unassigned) [Compound 59] | 56 nM | 1.9 nM | – | – | – |
| CN1C(=O)c2c(O)c(=O)c(C(=O)NCc3ccc(F)cc3)cn2CC12CCOC2 (single isomer, unassigned) [Compound 60] | – | – | 42 nM | 3.1 nM | – |
| CN1C(=O)c2c(O)c(=O)c(C(=O)NCc3ccc(F)c(Cl)c3)cn2CC12CCOC2 (single isomer, unassigned) [Compound 61] | 119 nM | 2.4 nM | – | – | – |
| CN1C(=O)c2c(O)c(=O)c(C(=O)NCc3ccc(F)c(Cl)c3)cn2CC12CCOC2 (single isomer, unassigned) [Compound 62] | – | – | 72 nM | 3.1 nM | – |
| CN1C(=O)c2c(O)c(=O)c(C(=O)NCc3c(F)cc(F)cc3F)cn2CC12CCOC2 (single isomer, unassigned) [Compound 63] | 17 nM | 1.9 nM | – | – | – |
| CN1C(=O)c2c(O)c(=O)c(C(=O)NCc3c(F)cc(F)cc3F)cn2CC12CCOC2 (single isomer, unassigned) [Compound 64] | – | – | 26 nM | 3.3 nM | – |

| SMILES | IC50 [1] | IC50 [2] | IC50 [3] | IC50 [4] | IC50 (Human immunodeficiency virus 1, NL43, MT4-GFP cells infected with HIV-1, 10% normal human serum, read-out: ViKinG IP (nM) with 10% NHS) |
| --- | --- | --- | --- | --- | --- |
| CN1C(=O)c2c(O)c(=O)c(C(=O)NCc3cccc(Cl)c3F)cn2CC12CCOC2 (single isomer, unassigned) [Compound 65] | 60 nM | 1.5 nM | – | – | – |
| CN1C(=O)c2c(O)c(=O)c(C(=O)NCc3cccc(Cl)c3F)cn2CC12CCOC2 (single isomer, unassigned) [Compound 66] | – | – | 40 nM | 1.5 nM | – |
| COCCN1C(=O)c2c(O)c(=O)c(C(=O)NCc3ccc(F)c(F)c3F)cn2CC12CCOC2 (single isomer, unassigned) [Compound 71] | 350 nM | 3.7 nM | – | – | – |
| COCCN1C(=O)c2c(O)c(=O)c(C(=O)NCc3ccc(F)c(F)c3F)cn2CC12CCOC2 (single isomer, unassigned) [Compound 72] | – | – | 290 nM | 4.6 nM | – |
| COCCCN1C(=O)c2c(O)c(=O)c(C(=O)NCc3ccc(F)cc3F)cn2CC12CCOC2 (single isomer, unassigned) [Compound 73] | 30 nM | 1.8 nM | – | – | – |
| COCCCN1C(=O)c2c(O)c(=O)c(C(=O)NCc3ccc(F)cc3F)cn2CC12CCOC2 (single isomer, unassigned) [Compound 74] | – | – | 28 nM | 3.3 nM | – |
| COCN1C(=O)c2c(O)c(=O)c(C(=O)NCc3ccc(F)cc3F)cn2CC12CCOC2 (single isomer, unassigned) [Compound 75] | – | 1.8 nM | 559 nM | – | – |
| COCN1C(=O)c2c(O)c(=O)c(C(=O)NCc3ccc(F)cc3F)cn2CC12CCOC2 (single isomer, unassigned) [Compound 76] | – | – | 151 nM | 2.4 nM | – |
| CCOCCN1C(=O)c2c(O)c(=O)c(C(=O)NCc3ccc(F)cc3F)cn2CC12CCOC2 (single isomer, unassigned) [Compound 77] | 96 nM | 3 nM | – | – | – |
| CCOCCN1C(=O)c2c(O)c(=O)c(C(=O)NCc3ccc(F)cc3F)cn2CC12CCOC2 (single isomer, unassigned) [Compound 78] | – | – | 55 nM | 2.3 nM | – |
| CCOCCN1C(=O)c2c(O)c(=O)c(C(=O)NCc3cccc(Cl)c3F)cn2CC12CCOC2 (single isomer, unassigned) [Compound 79] | – | 2.3 nM | 603 nM | – | – |
| CCOCCN1C(=O)c2c(O)c(=O)c(C(=O)NCc3cccc(Cl)c3F)cn2CC12CCOC2 (single isomer, unassigned) [Compound 80] | – | – | 217 nM | 1.7 nM | – |
| COCCN1C(=O)c2c(O)c(=O)c(C(=O)NCc3ccc(F)cc3F)cn2CC12CCCOC2 (single isomer, unassigned) [Compound 83] | 3050 nM | 7.8 nM | – | – | – |
| COCCN1C(=O)c2c(O)c(=O)c(C(=O)NCc3ccc(F)cc3F)cn2CC12CCCOC2 (single isomer, unassigned) [Compound 84] | – | – | 1960 nM | 4.5 nM | – |
| COCCCN1C(=O)c2c(O)c(=O)c(C(=O)NCc3ccc(F)cc3F)cn2CC12CCCOC2 (single isomer, unassigned) [Compound 85] | – | 5.4 nM | 78 nM | – | – |
| COCCCN1C(=O)c2c(O)c(=O)c(C(=O)NCc3ccc(F)cc3F)cn2CC12CCCOC2 (single isomer, unassigned) [Compound 86] | – | – | 177 nM | 9.3 nM | – |
| CN1C(=O)c2c(O)c(=O)c(C(=O)NCc3c(F)cc(F)cc3F)cn2N(C)C12CCOC2 (single isomer, unassigned) [Compound 105] | 37 nM | 0.8 nM | – | – | – |
| CN1C(=O)c2c(O)c(=O)c(C(=O)NCc3c(F)cc(F)cc3F)cn2N(C)C12CCOC2 (single isomer, unassigned) [Compound 106] | – | – | 27 nM | 0.6 nM | – |
